# Laboratory results reported in patent US6312704A, “Orally administrable composition capable of providing enhanced bioavailability when ingested” (Gattefosse, S.A., priority 1993, dated 2001).
# Legend:
# [1] = format: physicochemical; details: gastric medium pH 1.2
# Source text: The proportions by weight of the different constituents of this mixture are: […]
# [2] = in vitro rate of dissolution of hydrocortisone in a gastric medium (pH 1.2); format: physicochemical
# Source text: In this example, the rates of dissolution of hydrocortisone in a gastric medium (at pH 1.2) are compared.
# The same lipophilic phase and the same SA/CoSA mixture are used as in Example 8, but in the following proportions: […]
# [3] = in vivo test on rats, plasma concentrations after oral administration of indomethacin; details: powder made into a suspension immediately before use
# Protocol: In vivo tests were conducted on rats with indomethacin as active agent.
# (§1) The proportions by weight of the different constituents of this mixture are:
# An oral administration of indomethacin is first carried out according to the above composition.
# A second series of tests consists in administering indomethacin orally in the form of powder made into a suspension immediately before use.
# [4] = in vitro dissolution of indomethacin in a gastric medium at pH 1.2; format: physicochemical; details: gastric medium pH 1.2
# Protocol: In all the examples, the complement by weight to […] of the composition is, in actual fact, represented by an anti-inflammatory active principle, namely indomethacin in Examples 1 to 8, and 12, hydrocortisone in Example 9 and diclofenac sodium in Example 10. In examples 1-12, the hydrophilic phase is represented by water which is known to be a simulation of the digestive milieu for in vitro tests.
# By way of comparison, when the pure active agent (indomethacin) is tested, at best only 5% of this active agent is dissolved in one hour; and still by way of comparison, with hard gelatin capsules of this active principle which are currently on the market, only 4.7% of active agent dissolved is obtained at the end of one hour.
# In this example, the rates of dissolution in vitro in a gastric medium (at pH =1.2), in which indomethacin alone has a rate of dissolution of less than 5% in the same medium, are compared.
# as §1
# In this example, the same components are used as in the preceding example, with different proportions, namely: […]
smiles,measurement,setting,value
O=C(O)Cc1ccccc1Nc1c(Cl)cccc1Cl [diclofenac sodium],rate of dissolution in 30 min,[1]; 30 min,1%
same,solubility in gastric medium (in words),[1]; powder form,almost insoluble
C[C@]12CCC(=O)C=C1CC[C@@H]1[C@@H]2[C@@H](O)C[C@@]2(C)[C@H]1CC[C@]2(O)C(=O)CO [hydrocortisone],rate of dissolution in 45 minutes,[2],10%
COc1ccc2c(c1)c(CC(=O)O)c(C)n2C(=O)c1ccc(Cl)cc1 [indomethacin],kinetics obtained,[3],irregular and vary from one animal to another
same,concentration at 1 h,"[3]; rat, in vivo, one hour",1000 to 5000 ng/mL
same,concentration at 2 h,"[3]; rat, in vivo, two hours",1000 to 4000 ng/mL
same,percentage of the active agent dissolved at the end of one hour,[4]; one hour,≤ 5%
same,rate of dissolution,"[4]; indomethacin alone, time not stated",less than 5%
